Laboratory results reported in publication PMC10139140, “Synthesis of Novel 2-(Cyclopentylamino)thiazol-4(5H)-one Derivatives with Potential Anticancer, Antioxidant, and 11β-HSD Inhibitory Activities” (International Journal of Molecular Sciences, 2023).

Experiments:
11β-HSD2 = target: T1, 11β-HSD2 (Homo sapiens, UniProt P80365); test: Inhibition of 11β-HSD2 (cortisol to cortisone, human microsomes, cortisol ELISA); format: biochemical; details: 2.5 h, 37 °C
T1 construct: Human liver microsomes were used as a source of 11β-HSD2 enzyme; tissue XenoTech Lot No. 1710160; host or cells: human kidney microsomes, mixed gender (method text says human liver microsomes)
T1 sequence (P80365 1-405): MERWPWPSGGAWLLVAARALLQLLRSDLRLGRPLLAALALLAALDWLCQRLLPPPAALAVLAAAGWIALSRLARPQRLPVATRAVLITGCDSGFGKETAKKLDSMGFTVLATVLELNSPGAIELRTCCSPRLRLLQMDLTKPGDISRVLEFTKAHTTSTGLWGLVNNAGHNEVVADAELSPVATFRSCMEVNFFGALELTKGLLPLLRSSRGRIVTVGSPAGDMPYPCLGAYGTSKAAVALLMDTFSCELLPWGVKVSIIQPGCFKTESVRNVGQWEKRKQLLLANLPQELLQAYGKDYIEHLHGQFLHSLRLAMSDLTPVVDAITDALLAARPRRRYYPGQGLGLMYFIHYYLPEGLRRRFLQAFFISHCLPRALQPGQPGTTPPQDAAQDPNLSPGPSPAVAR
Description: The resulting solution with a final volume of 100 µL was incubated for 2.5 h at 37 °C. […] The level of unreacted cortisol was measured by a commercially available ELISA kit.

[1] = tested on: human breast carcinoma (MDA-MB-231); test: MTS metabolic activity assay, MDA-MB-231 cells; format: cell-based; details: 72 h; for viability at 10 µM / viability at 20 µM / viability at 50 µM / viability at 100 µM / viability at 200 µM / viability at 300 µM / viability at 500 µM: Homo sapiens, read-out: Cell metabolic activity (MTS), % of untreated control; for viability at 10 µM: MDA-MB-231, 10 µM; for viability at 20 µM: MDA-MB-231, 20 µM; for viability at 50 µM: MDA-MB-231, 50 µM; for viability at 100 µM: MDA-MB-231, 100 µM; for viability at 200 µM: MDA-MB-231, 200 µM; for viability at 300 µM: MDA-MB-231, 300 µM; for viability at 500 µM: MDA-MB-231, 500 µM
Method in brief: (§1)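 Absorbance at 590/620 nm after 3 h MTS incubation gave metabolic activity as % of untreated cells. Treatment lasted 72 h at varied concentrations, starting 24 h after seeding; Caco-2 grown with 20% FBS, others 10%.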

[2] = tested on: human colon carcinoma (Caco-2); test: MTS metabolic activity assay, Caco-2 cells; format: cell-based; details: 72 h; for cell viability, decreases to: Caco-2, higher concentrations, range given for the most effective substances together; for viability at 10 µM / viability at 20 µM / viability at 50 µM / viability at 100 µM / viability at 200 µM / viability at 300 µM / viability at 500 µM: Homo sapiens, read-out: Cell metabolic activity (MTS), % of untreated control; for viability at 10 µM: Caco-2, 10 µM; for viability at 20 µM: Caco-2, 20 µM; for viability at 50 µM: Caco-2, 50 µM; for viability at 100 µM: Caco-2, 100 µM; for viability at 200 µM: Caco-2, 200 µM; for viability at 300 µM: Caco-2, 300 µM; for viability at 500 µM: Caco-2, 500 µM
Method in brief: as §1

[3] = tested on: skin melanoma (SK-MEL-30); test: MTS metabolic activity assay, SK-MEL-30 cells; format: cell-based; details: Homo sapiens, 72 h, read-out: Cell metabolic activity (MTS), % of untreated control; for viability at 10 µM: SK-MEL-30, 10 µM; for viability at 20 µM: SK-MEL-30, 20 µM; for viability at 50 µM: SK-MEL-30, 50 µM; for viability at 100 µM: SK-MEL-30, 100 µM; for viability at 200 µM: SK-MEL-30, 200 µM; for viability at 300 µM: SK-MEL-30, 300 µM; for viability at 500 µM: SK-MEL-30, 500 µM
Method in brief: as §1

[4] = tested on: human pancreatic carcinoma (PANC-1); test: MTS metabolic activity assay, PANC-1 cells; format: cell-based; details: for viability at 10 µM / viability at 20 µM / viability at 50 µM / viability at 100 µM / viability at 200 µM / viability at 300 µM / viability at 500 µM: Homo sapiens, 72 h, read-out: Cell metabolic activity (MTS), % of untreated control; for viability at 10 µM: PANC-1, 10 µM; for viability at 20 µM: PANC-1, 20 µM; for viability at 50 µM: PANC-1, 50 µM; for viability at 100 µM: PANC-1, 100 µM; for viability at 200 µM: PANC-1, 200 µM; for viability at 300 µM: PANC-1, 300 µM; for viability at 500 µM: PANC-1, 500 µM
Method in brief: as §1

glioma (U-118 MG) = test: MTS metabolic activity assay, U-118 MG cells; format: cell-based; details: 72 h; for viability at 10 µM / viability at 20 µM / viability at 50 µM / viability at 100 µM / viability at 200 µM / viability at 300 µM / viability at 500 µM: Homo sapiens, U-118-MG, U118-MG, read-out: Cell metabolic activity (MTS), % of untreated control
Method in brief: as §1

11β-HSD1 = target: T2, 11β-HSD1 (Homo sapiens, UniProt P28845); test: Inhibition of 11β-HSD1 (cortisone to cortisol, human liver microsomes, cortisol ELISA); format: biochemical
T2 construct: Human liver microsomes were used as a source of 11β-HSD1 enzyme; tissue XenoTech Lot No. 1410013; host or cells: pooled human liver microsomes, mixed gender
T2 sequence (P28845 whole entry): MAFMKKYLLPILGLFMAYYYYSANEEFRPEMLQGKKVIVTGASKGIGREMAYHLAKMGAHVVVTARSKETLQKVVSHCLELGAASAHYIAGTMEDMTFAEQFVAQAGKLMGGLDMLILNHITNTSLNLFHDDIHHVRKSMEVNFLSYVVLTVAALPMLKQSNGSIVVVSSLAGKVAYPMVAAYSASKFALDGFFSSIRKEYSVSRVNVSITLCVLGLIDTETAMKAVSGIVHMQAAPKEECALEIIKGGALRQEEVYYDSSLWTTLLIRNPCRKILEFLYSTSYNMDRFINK
Method in brief: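 Human liver microsomal conversion of cortisone to cortisol, incubated 2.5 h at 37 °C and stopped with 18β-glycyrrhetinic acid. Cortisol was quantified by ELISA against inhibitor-free controls.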

BJ cells = test: MTS metabolic activity assay, BJ cells; format: cell-based; details: Homo sapiens, 72 h, read-out: Cell metabolic activity (MTS), % of untreated control
Method in brief: as §1

O=C1N=C(NC2CCCC2)SC12CCCCC2 [Compound 3h, 2-(cyclopentylamino)-1-thia-3-azaspiro[4.5]dec-2-en-4-one]
inhibition at 10 µM (11β-HSD2): < 43% | viability at 10 µM [1]: 91.6% | viability at 20 µM [1]: 92.7% | viability at 50 µM [1]: 92.1% | viability at 100 µM [1]: 93.5% | viability at 200 µM [1]: 77.1% | viability at 300 µM [1]: 64.6% | viability at 500 µM [1]: 45.6% | cell viability, decreases to ([1]; MDA-MB-231, higher concentrations, range given for the most effective substances together): 20–65% | cell viability, decreases to [2]: 20–65% | viability at 10 µM [2]: 96.3% | viability at 20 µM [2]: 94.2% | viability at 50 µM [2]: 99.9% | viability at 100 µM [2]: 96.2% | viability at 200 µM [2]: 95.6% | viability at 300 µM [2]: 82.6% | viability at 500 µM [2]: 65.5% | viability at 10 µM [3]: 96.1% | viability at 20 µM [3]: 100% | viability at 50 µM [3]: 102% | viability at 100 µM [3]: 105% | viability at 200 µM [3]: 109% | viability at 300 µM [3]: 106% | viability at 500 µM [3]: 80.8% | viability at 10 µM [4]: 102% | viability at 20 µM [4]: 96% | viability at 50 µM [4]: 105% | viability at 100 µM [4]: 109% | viability at 200 µM [4]: 117% | viability at 300 µM [4]: 127% | viability at 500 µM [4]: 98.4% | highest increase in proliferation (cell metabolic activity) ([4]; PANC-1, 72 h, range given for the named substances together): 115 to 144% | viability at 10 µM (glioma (U-118 MG)): 111% | viability at 20 µM (glioma (U-118 MG)): 111% | viability at 50 µM (glioma (U-118 MG)): 116% | viability at 100 µM (glioma (U-118 MG)): 116% | viability at 200 µM (glioma (U-118 MG)): 121% | viability at 300 µM (glioma (U-118 MG)): 121% | viability at 500 µM (glioma (U-118 MG)): 99.9% | highest increase in proliferation (cell metabolic activity) (glioma (U-118 MG); U-118 MG, range given for the named substances together): 115 to 144% | IC50 (11β-HSD1): 70 ± 5 nM | % of 11β-HSD1 Inhibition 10 μM (11β-HSD1; 10 µM, 2.5 h, 37 °C): 90.49 ± 1.31% | inhibition at 10 µM (11β-HSD1; 10 µM, 2.5 h, 37 °C): 90% | viability at 10 µM (BJ cells): 108% | viability at 20 µM (BJ cells): 106% | viability at 50 µM (BJ cells): 111% | viability at 100 µM (BJ cells): 118% | viability at 200 µM (BJ cells): 122% | viability at 300 µM (BJ cells): 115% | viability at 500 µM (BJ cells): 79%

O=C1N=C(NC2CCCC2)SC12CCC2 [Compound 3i, 6-(cyclopentylamino)-5-thia-7-azaspiro[3.4]oct-6-en-8-one]
inhibition at 10 µM (11β-HSD2): 46.3 ± 1.22% | viability at 10 µM [1]: 87.2% | viability at 20 µM [1]: 91.2% | viability at 50 µM [1]: 89.6% | viability at 100 µM [1]: 85.1% | viability at 200 µM [1]: 72.5% | viability at 300 µM [1]: 69.3% | viability at 500 µM [1]: 58.7% | cell viability, decreases to [2]: 20–65% | viability at 10 µM [2]: 92.2% | viability at 20 µM [2]: 91.2% | viability at 50 µM [2]: 92.9% | viability at 100 µM [2]: 82.5% | viability at 200 µM [2]: 77.5% | viability at 300 µM [2]: 69.8% | viability at 500 µM [2]: 61.5% | viability at 10 µM [3]: 88.1% | viability at 20 µM [3]: 94% | viability at 50 µM [3]: 97.3% | viability at 100 µM [3]: 99% | viability at 200 µM [3]: 101% | viability at 300 µM [3]: 102% | viability at 500 µM [3]: 103% | viability at 10 µM [4]: 95.4% | viability at 20 µM [4]: 93.3% | viability at 50 µM [4]: 97.3% | viability at 100 µM [4]: 91.4% | viability at 200 µM [4]: 91.2% | viability at 300 µM [4]: 79.7% | viability at 500 µM [4]: 66.6% | viability at 10 µM (glioma (U-118 MG)): 107% | viability at 20 µM (glioma (U-118 MG)): 108% | viability at 50 µM (glioma (U-118 MG)): 111% | viability at 100 µM (glioma (U-118 MG)): 109% | viability at 200 µM (glioma (U-118 MG)): 112% | viability at 300 µM (glioma (U-118 MG)): 109% | viability at 500 µM (glioma (U-118 MG)): 108% | IC50 (11β-HSD1): 1550 ± 100 nM | inhibition at 10 µM (11β-HSD1; 10 µM, 2.5 h, 37 °C): 71.2 ± 4.77% | viability at 10 µM (BJ cells): 102% | viability at 20 µM (BJ cells): 104% | viability at 50 µM (BJ cells): 105% | viability at 100 µM (BJ cells): 111% | viability at 200 µM (BJ cells): 116% | viability at 300 µM (BJ cells): 121% | viability at 500 µM (BJ cells): 115%
